In this experiment the test system is HIV-1 LAI envelope single-round infectious reporter virus. Nature of the experiment: Single-round infectious HIV-1 LAI luciferase reporter virus infection of MT2 cells. The class given is cell-based. Conditions: Human immunodeficiency virus 1, MT2, 72 h. An excerpt:
Virus Production • Human embryonic Kidney cell line, 293T (HEK 293T), was propagated in Dulbecco's Modified Eagle Medium (Invitrogen, Carlsbad, Calif.) containing 10% fetal bovine serum (FBS, Sigma, St. Louis, Mo.). The human T-cell leukemia cell MT2 (AIDS Research and Reference Reagent Program, Cat. 237) was propagated in RPMI 1640 (Invitrogen, Carlsbad, Calif.) containing 10% fetal bovine serum (FBS, Hyclone, Logan, Utah)
Virus Infection • Single-round infectious reporter virus was produced by co-transfecting HEK 293T cells with plasmide expressing the HIV-1 LAI envelope along with a plasmid containing an HIV-1 LAI proviral cDNA with the envelope gene replaced by a firefly luciferase reporter gene (Chen et al., Ref 41). Transfections were performed using lipofectAMINE PLUS reagent as described by the manufacturer (Invitrogen, Carlsbad, Calif.). Experimental Procedure • 1. MT2 cells were plated in black, 384 well plates at a cell density of 5×10^3 cells per well in 25 μl RPMI 1640 containing 10% FBS. • 2. Compound (diluted in dimethylsulfoxide and growth medium) was added to cells at 12.5 μl/well, so that the final assay concentration would be ≦50 nM. • 3. 12.5 μl of single-round infectious reporter virus in Dulbecco's Modified Eagle Medium was added to the plated cells and compound at an approximate multiplicity of infection (MOI) of 0.01, resulting in a final volume of 50 μl per well. • 4. Virus-infected cells were incubated at 37 degrees Celsius in a CO2 incubator and harvested 72 h after infection. • 5. Viral infection was monitored by measuring luciferase expression in the infected cells using a luciferase reporter gene assay kit (Steady-Glo, Promega, Madison, Wis.) as described by the manufacturer. Luciferase activity was then quantified by measuring luminescence using an EnVision Multilabel Plate Readers (PerkinElmer, Waltham, Mass.). • 6. The percent inhibition for each compound was calculated by quantifying the level of luciferase expression in cells infected in the presence of each compound as a percentage of that observed for cells infected in the absence of compound and subtracting such a determined value from 100. • 7. An EC50 provides a method for comparing the antiviral potency of the compounds of this disclosure. The effective concentration for fifty percent inhibition (EC50) was calculated with the Microsoft Excel Xlfit curve fitting software. For each compound, curves were generated from percent inhibition calculated at 10 different concentrations by using a four parameter logistic model (model 205). Table 1 is the key for the data in Table 2.
On the technique in general: Reporter assays use an easily measured gene product as a stand-in for the process of interest.

Where [1] appears, read: read-out: EC50 Group from Table 1.

Where two headings read alike, the source gives them in different places.

In patent US8685982B2, “Thioamide, amidoxime and amidrazone derivatives as HIV attachment inhibitors” (priority 2011, dated 2014) one finds EC50 data, which are given here for 6 molecules.

As usually defined, the EC50 is the concentration at which the effect is half-maximal. For `CN(C)c1ccc(C(=S)N2CCN(C(=O)C(=O)c3c[nH]c4cccc(F)c34)CC2)cc1` [Compound 1001], under setting [1], the EC50 was over 500 nM.
With `CN(C)N=C(c1ccccc1)N1CCN(C(=O)C(=O)c2c[nH]c3c(-n4ccnn4)ncc(F)c23)CC1` [Compound 1003], the EC50 under setting [1] was under 500 nM.
With `O=C(C(=O)N1CCN(C(=S)c2ccccc2)CC1)c1c[nH]c2c(-n3ccnn3)ncc(F)c12` [Compound 2001, 1-(4-fluoro-7-(1H-1,2,3-triazol-1-yl)-1H-pyrrolo[2,3-c]pyridin-3-yl)-2-(4-(phenylcarbonothioyl)piperazin-1-yl)ethane-1,2-dione], a half-maximal response (EC50) required 0.027 nM. In addition, the EC50 under setting [1] is under 500 nM.
As to `CON=C(c1ccccc1)N1CCN(C(=O)C(=O)c2c[nH]c3c(-n4ccnn4)ncc(F)c23)CC1` [Compound 2002, 1-(4-fluoro-7-(1H-1,2,3-triazol-1-yl)-1H-pyrrolo[2,3-c]pyridin-3-yl)-2-(4-((methoxyimino)(phenyl)methyl)piperazin-1-yl)ethane-1,2-dione], the EC50 under setting [1] was under 500 nM.
`CON=C(c1ccccc1)N1CCN(C(=O)C(=O)c2c[nH]c3c(-n4cnc(C)n4)ncc(OC)c23)CC1` [Compound 2004, 1-(4-methoxy-7-(3-methyl-1H-1,2,4-triazol-1-yl)-1H-pyrrolo[2,3-c]pyridin-3-yl)-2-(4-((methoxyimino)(phenyl)methyl)piperazin-1-yl)ethane-1,2-dione] displayed an EC50 of 0.019 nM. For the same molecule, the EC50 under setting [1] was under 500 nM.
In turn, `O=C(C(=O)N1CCN(C(=NO)c2ccccc2)CC1)c1c[nH]c2c(-n3ccnn3)ncc(F)c12` [Compound 2005, 1-(4-fluoro-7-(1H-1,2,3-triazol-1-yl)-1H-pyrrolo[2,3-c]pyridin-3-yl)-2-(4-((hydroxyimino)(phenyl)methyl)piperazin-1-yl)ethane-1,2-dione] returned an EC50 of 0.121 nM. For the same molecule, under setting [1], the EC50 was under 500 nM.
